Measured values as given in PubChem BioAssay (NCI).
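In this assay, cells in 96-well plates receive the compound at five concentrations for 48 hours. Endpoints are linearly interpolated between the surrounding concentrations. GI50: concentration for 50% inhibition of growth. TGI: concentration producing complete growth inhibition.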

Key:
Assay in all cases: inhibition of tumour cell growth, NCI panel, 48 h
NCI-H522 lung = system: NCI-H522 lung
BT-549 breast = system: BT-549 breast
RXF 393 renal = system: RXF 393 renal
NCI-H460 lung = system: NCI-H460 lung
MDA-MB-435 = system: MDA-MB-435
CCRF-CEM leukemia = system: CCRF-CEM leukemia
786-0 renal = system: 786-0 renal
UACC-257 melanoma = system: UACC-257 melanoma
SF-295 CNS = system: SF-295 CNS
SK-OV-3 ovarian = system: SK-OV-3 ovarian
KM12 colon = system: KM12 colon
MCF7 breast = system: MCF7 breast
SK-MEL-28 melanoma = system: SK-MEL-28 melanoma
SF-539 CNS = system: SF-539 CNS
HCT-15 colon = system: HCT-15 colon
SN12C renal = system: SN12C renal
HS 578T breast = system: HS 578T breast
MOLT-4 leukemia = system: MOLT-4 leukemia
HCC-2998 colon = system: HCC-2998 colon
HOP-62 NSCLC = system: HOP-62 NSCLC
T-47D breast = system: T-47D breast
HT29 colon = system: HT29 colon
OVCAR-5 ovarian = system: OVCAR-5 ovarian
RPMI-8226 leukemia = system: RPMI-8226 leukemia
OVCAR-4 ovarian = system: OVCAR-4 ovarian
ACHN renal = system: ACHN renal
HCT-116 colon = system: HCT-116 colon
UACC-62 melanoma = system: UACC-62 melanoma
U251 CNS = system: U251 CNS
HL-60(TB) leukemia = system: HL-60(TB) leukemia
NCI-H226 lung = system: NCI-H226 lung
SW-620 colon = system: SW-620 colon
SNB-75 CNS = system: SNB-75 CNS
MALME-3M melanoma = system: MALME-3M melanoma
IGROV1 ovarian = system: IGROV1 ovarian
SR leukemia = system: SR leukemia
M14 melanoma = system: M14 melanoma
EKVX NSCLC = system: EKVX NSCLC
COLO 205 colon = system: COLO 205 colon
DU-145 prostate = system: DU-145 prostate
A498 renal = system: A498 renal
HOP-92 NSCLC = system: HOP-92 NSCLC
SNB-19 CNS = system: SNB-19 CNS
SK-MEL-2 melanoma = system: SK-MEL-2 melanoma
PC-3 prostate = system: PC-3 prostate
UO-31 renal = system: UO-31 renal
OVCAR-8 ovarian = system: OVCAR-8 ovarian
TK-10 renal = system: TK-10 renal
K-562 leukemia = system: K-562 leukemia
A549 NSCLC = system: A549 NSCLC
NCI/ADR-RES ovarian = system: NCI/ADR-RES ovarian
SF-268 CNS = system: SF-268 CNS
NCI-H23 lung = system: NCI-H23 lung
SK-MEL-5 melanoma = system: SK-MEL-5 melanoma

Which results are given for `CCOC(=O)c1c(NC(=O)c2ccccc2C(F)(F)F)sc2c1CCC(=O)C2`?
GI50 (NCI-H522 lung): 1.92 µM; TGI (NCI-H522 lung): 4.82 µM; GI50 (BT-549 breast): 3.35 µM; TGI (BT-549 breast): > 100 µM; GI50 (RXF 393 renal): 2.39 µM; TGI (RXF 393 renal): 8.09 µM; GI50 (NCI-H460 lung): 3.48 µM; TGI (NCI-H460 lung): 12.1 µM; GI50 (MDA-MB-435): 3.18 µM; TGI (MDA-MB-435): 11.6 µM; GI50 (CCRF-CEM leukemia): 3.24 µM; TGI (CCRF-CEM leukemia): > 100 µM; GI50 (786-0 renal): 4.63 µM; TGI (786-0 renal): > 100 µM; GI50 (UACC-257 melanoma): 3.49 µM; TGI (UACC-257 melanoma): 37.8 µM; GI50 (SF-295 CNS): 2.58 µM; TGI (SF-295 CNS): 7.64 µM; GI50 (SK-OV-3 ovarian): 3.18 µM; TGI (SK-OV-3 ovarian): > 100 µM; GI50 (KM12 colon): 2.69 µM; TGI (KM12 colon): 7.21 µM; GI50 (MCF7 breast): 2.79 µM; TGI (MCF7 breast): 30.2 µM; GI50 (SK-MEL-28 melanoma): 4.51 µM; TGI (SK-MEL-28 melanoma): 65 µM; GI50 (SF-539 CNS): 1.87 µM; TGI (SF-539 CNS): 3.72 µM; GI50 (HCT-15 colon): 2.72 µM; TGI (HCT-15 colon): 10.3 µM; GI50 (SN12C renal): 3.06 µM; TGI (SN12C renal): > 100 µM; GI50 (HS 578T breast): 4.66 µM; TGI (HS 578T breast): > 100 µM; GI50 (MOLT-4 leukemia): 3.54 µM; TGI (MOLT-4 leukemia): > 100 µM; GI50 (HCC-2998 colon): 3.16 µM; TGI (HCC-2998 colon): 10.5 µM; GI50 (HOP-62 NSCLC): 3.71 µM; TGI (HOP-62 NSCLC): > 100 µM; GI50 (T-47D breast): 3.12 µM; TGI (T-47D breast): > 100 µM; GI50 (HT29 colon): 3.1 µM; TGI (HT29 colon): 8.75 µM; GI50 (OVCAR-5 ovarian): 2.52 µM; TGI (OVCAR-5 ovarian): 7.1 µM; GI50 (RPMI-8226 leukemia): 1.95 µM; TGI (RPMI-8226 leukemia): 5.46 µM; GI50 (OVCAR-4 ovarian): 3.79 µM; TGI (OVCAR-4 ovarian): > 100 µM; GI50 (ACHN renal): 3.33 µM; TGI (ACHN renal): 10.4 µM; GI50 (HCT-116 colon): 3.29 µM; TGI (HCT-116 colon): 12.6 µM; GI50 (UACC-62 melanoma): 2.83 µM; TGI (UACC-62 melanoma): 11.5 µM; GI50 (U251 CNS): 0.792 µM; TGI (U251 CNS): 12 µM; GI50 (HL-60(TB) leukemia): 2.4 µM; TGI (HL-60(TB) leukemia): 6.48 µM; GI50 (NCI-H226 lung): 2.94 µM; TGI (NCI-H226 lung): 9.47 µM; GI50 (SW-620 colon): 2.64 µM; TGI (SW-620 colon): 10 µM; GI50 (SNB-75 CNS): 1.39 µM; TGI (SNB-75 CNS): 7.14 µM; GI50 (MALME-3M melanoma): 2.78 µM; TGI (MALME-3M melanoma): 8 µM; GI50 (IGROV1 ovarian): 3.09 µM; TGI (IGROV1 ovarian): 10.3 µM; GI50 (SR leukemia): 2.33 µM; TGI (SR leukemia): > 100 µM; GI50 (M14 melanoma): 3.94 µM; TGI (M14 melanoma): > 100 µM; GI50 (EKVX NSCLC): 3.41 µM; TGI (EKVX NSCLC): 23.6 µM; GI50 (COLO 205 colon): 2.12 µM; TGI (COLO 205 colon): 4.12 µM; GI50 (DU-145 prostate): 4.44 µM; TGI (DU-145 prostate): > 100 µM; GI50 (A498 renal): 11.5 µM; TGI (A498 renal): 49.2 µM; GI50 (HOP-92 NSCLC): 1.82 µM; TGI (HOP-92 NSCLC): 5.52 µM; GI50 (SNB-19 CNS): 3.85 µM; TGI (SNB-19 CNS): 41.2 µM; GI50 (SK-MEL-2 melanoma): 2.75 µM; TGI (SK-MEL-2 melanoma): 8.82 µM; GI50 (PC-3 prostate): 2.45 µM; TGI (PC-3 prostate): 7.68 µM; GI50 (UO-31 renal): 2.3 µM; TGI (UO-31 renal): 7.57 µM; GI50 (OVCAR-8 ovarian): 3.4 µM; TGI (OVCAR-8 ovarian): > 100 µM; GI50 (TK-10 renal): 5.36 µM; TGI (TK-10 renal): > 100 µM; GI50 (K-562 leukemia): 1.98 µM; TGI (K-562 leukemia): > 100 µM; GI50 (A549 NSCLC): 3.51 µM; TGI (A549 NSCLC): > 100 µM; GI50 (NCI/ADR-RES ovarian): 3.09 µM; TGI (NCI/ADR-RES ovarian): 11.2 µM; GI50 (SF-268 CNS): 3.96 µM; TGI (SF-268 CNS): > 100 µM; GI50 (NCI-H23 lung): 2.93 µM; TGI (NCI-H23 lung): 9.25 µM; GI50 (SK-MEL-5 melanoma): 1.88 µM; TGI (SK-MEL-5 melanoma): 3.64 µM
